{
  "source": "ChEMBL document CHEMBL5537170",
  "about": "“Design, Synthesis, and Anti-Osteoporotic Characterization of Arginine N-Glycosylated Teriparatide Analogs via the Silver-catalyzed Solid-Phase Glycosylation Strategy” (J Med Chem, 2024)",
  "note": "*1 amine or outer side, *2 acyl side, *3 side chain or, on linkers, in order; H or OH if unused. Where a SMILES comes first, the peptide text is derived from it. [ ]: non-standard residue; d: D form. X1 = N=C(NCCC[C@H](N[*:1])C(=O)[*:2])N[C@@H]1O[C@H](CO)[C@@H](O)[C@H](O)[C@H]1O",
  "data": [
    {"assay": "Cytotoxicity against C57BL/6 mouse Pre-Osteoblast cells assessed as cell death upto 5 uM incubated for 4 days by CCK-8 assay", "format": "toxicity, cell-based", "settings": "96 h, time 4 day", "values": [
      {"smiles": "CC[C@H](C)[C@H](NC(=O)[C@H](CCC(=O)O)NC(=O)[C@H](CO)NC(=O)[C@@H](NC(=O)[C@H](CO)NC(C)=O)C(C)C)C(=O)N[C@@H](CCC(N)=O)C(=O)N[C@@H](CC(C)C)C(=O)N[C@@H](CCSC)C(=O)N[C@@H](Cc1cnc[nH]1)C(=O)N[C@@H](CC(N)=O)C(=O)N[C@@H](CC(C)C)C(=O)NCC(=O)N[C@@H](CCCCN)C(=O)N[C@@H](Cc1cnc[nH]1)C(=O)N[C@@H](CC(C)C)C(=O)N[C@@H](CC(N)=O)C(=O)N[C@@H](CO)C(=O)N[C@@H](CCSC)C(=O)N[C@@H](CCC(=O)O)C(=O)N[C@@H](CCCNC(=N)N[C@@H]1O[C@H](CO)[C@@H](O)[C@H]1O)C(=O)N[C@H](C(=O)N[C@@H](CCC(=O)O)C(=O)N[C@@H](Cc1c[nH]c2ccccc12)C(=O)N[C@@H](CC(C)C)C(=O)N[C@@H](CCCNC(=N)N)C(=O)N[C@@H](CCCCN)C(=O)N[C@@H](CCCCN)C(=O)N[C@@H](CC(C)C)C(=O)N[C@@H](CCC(N)=O)C(=O)N[C@@H](CC(=O)O)C(=O)N[C@H](C(=O)N[C@@H](Cc1cnc[nH]1)C(=O)N[C@@H](CC(N)=O)C(=O)N[C@@H](Cc1ccccc1)C(N)=O)C(C)C)C(C)C", "Activity": "Non-Toxic"},
      {"smiles": "CC[C@H](C)[C@H](NC(=O)[C@H](CCC(=O)O)NC(=O)[C@H](CO)NC(=O)[C@@H](NC(=O)[C@H](CO)NC(C)=O)C(C)C)C(=O)N[C@@H](CCC(N)=O)C(=O)N[C@@H](CC(C)C)C(=O)N[C@@H](CCSC)C(=O)N[C@@H](Cc1cnc[nH]1)C(=O)N[C@@H](CC(N)=O)C(=O)N[C@@H](CC(C)C)C(=O)NCC(=O)N[C@@H](CCCCN)C(=O)N[C@@H](Cc1cnc[nH]1)C(=O)N[C@@H](CC(C)C)C(=O)N[C@@H](CC(N)=O)C(=O)N[C@@H](CO)C(=O)N[C@@H](CCSC)C(=O)N[C@@H](CCC(=O)O)C(=O)N[C@@H](CCCNC(=N)N)C(=O)N[C@H](C(=O)N[C@@H](CCC(=O)O)C(=O)N[C@@H](Cc1c[nH]c2ccccc12)C(=O)N[C@@H](CC(C)C)C(=O)N[C@@H](CCCNC(=N)N[C@@H]1OC[C@@H](O)[C@H](O)[C@H]1O)C(=O)N[C@@H](CCCCN)C(=O)N[C@@H](CCCCN)C(=O)N[C@@H](CC(C)C)C(=O)N[C@@H](CCC(N)=O)C(=O)N[C@@H](CC(=O)O)C(=O)N[C@H](C(=O)N[C@@H](Cc1cnc[nH]1)C(=O)N[C@@H](CC(N)=O)C(=O)N[C@@H](Cc1ccccc1)C(N)=O)C(C)C)C(C)C", "Activity": "Non-Toxic"},
      {"smiles": "CC[C@H](C)[C@H](NC(=O)[C@H](CCC(=O)O)NC(=O)[C@H](CO)NC(=O)[C@@H](NC(=O)[C@H](CO)NC(C)=O)C(C)C)C(=O)N[C@@H](CCC(N)=O)C(=O)N[C@@H](CC(C)C)C(=O)N[C@@H](CCSC)C(=O)N[C@@H](Cc1cnc[nH]1)C(=O)N[C@@H](CC(N)=O)C(=O)N[C@@H](CC(C)C)C(=O)NCC(=O)N[C@@H](CCCCN)C(=O)N[C@@H](Cc1cnc[nH]1)C(=O)N[C@@H](CC(C)C)C(=O)N[C@@H](CC(N)=O)C(=O)N[C@@H](CO)C(=O)N[C@@H](CCSC)C(=O)N[C@@H](CCC(=O)O)C(=O)N[C@@H](CCCNC(=N)N)C(=O)N[C@H](C(=O)N[C@@H](CCC(=O)O)C(=O)N[C@@H](Cc1c[nH]c2ccccc12)C(=O)N[C@@H](CC(C)C)C(=O)N[C@@H](CCCNC(=N)N[C@@H]1O[C@H](CO)[C@@H](O[C@@H]2O[C@H](CO)[C@H](O)[C@H](O)[C@H]2O)[C@H](O)[C@H]1O)C(=O)N[C@@H](CCCCN)C(=O)N[C@@H](CCCCN)C(=O)N[C@@H](CC(C)C)C(=O)N[C@@H](CCC(N)=O)C(=O)N[C@@H](CC(=O)O)C(=O)N[C@H](C(=O)N[C@@H](Cc1cnc[nH]1)C(=O)N[C@@H](CC(N)=O)C(=O)N[C@@H](Cc1ccccc1)C(N)=O)C(C)C)C(C)C", "Activity": "Non-Toxic"},
      {"smiles": "CC[C@H](C)[C@H](NC(=O)[C@H](CCC(=O)O)NC(=O)[C@H](CO)NC(=O)[C@@H](NC(=O)[C@H](CO)NC(C)=O)C(C)C)C(=O)N[C@@H](CCC(N)=O)C(=O)N[C@@H](CC(C)C)C(=O)N[C@@H](CCSC)C(=O)N[C@@H](Cc1cnc[nH]1)C(=O)N[C@@H](CC(N)=O)C(=O)N[C@@H](CC(C)C)C(=O)NCC(=O)N[C@@H](CCCCN)C(=O)N[C@@H](Cc1cnc[nH]1)C(=O)N[C@@H](CC(C)C)C(=O)N[C@@H](CC(N)=O)C(=O)N[C@@H](CO)C(=O)N[C@@H](CCSC)C(=O)N[C@@H](CCC(=O)O)C(=O)N[C@@H](CCCNC(=N)N[C@H]1O[C@H](CO)[C@@H](O)[C@H](O)[C@H]1O)C(=O)N[C@H](C(=O)N[C@@H](CCC(=O)O)C(=O)N[C@@H](Cc1c[nH]c2ccccc12)C(=O)N[C@@H](CC(C)C)C(=O)N[C@@H](CCCNC(=N)N)C(=O)N[C@@H](CCCCN)C(=O)N[C@@H](CCCCN)C(=O)N[C@@H](CC(C)C)C(=O)N[C@@H](CCC(N)=O)C(=O)N[C@@H](CC(=O)O)C(=O)N[C@H](C(=O)N[C@@H](Cc1cnc[nH]1)C(=O)N[C@@H](CC(N)=O)C(=O)N[C@@H](Cc1ccccc1)C(N)=O)C(C)C)C(C)C", "Activity": "Non-Toxic"},
      {"smiles": "CC[C@H](C)[C@H](NC(=O)[C@H](CCC(=O)O)NC(=O)[C@H](CO)NC(=O)[C@@H](NC(=O)[C@H](CO)NC(C)=O)C(C)C)C(=O)N[C@@H](CCC(N)=O)C(=O)N[C@@H](CC(C)C)C(=O)N[C@@H](CCSC)C(=O)N[C@@H](Cc1cnc[nH]1)C(=O)N[C@@H](CC(N)=O)C(=O)N[C@@H](CC(C)C)C(=O)NCC(=O)N[C@@H](CCCCN)C(=O)N[C@@H](Cc1cnc[nH]1)C(=O)N[C@@H](CC(C)C)C(=O)N[C@@H](CC(N)=O)C(=O)N[C@@H](CO)C(=O)N[C@@H](CCSC)C(=O)N[C@@H](CCC(=O)O)C(=O)N[C@@H](CCCNC(=N)N[C@@H]1O[C@@H](C)[C@H](O)[C@@H](O)[C@H]1O)C(=O)N[C@H](C(=O)N[C@@H](CCC(=O)O)C(=O)N[C@@H](Cc1c[nH]c2ccccc12)C(=O)N[C@@H](CC(C)C)C(=O)N[C@@H](CCCNC(=N)N)C(=O)N[C@@H](CCCCN)C(=O)N[C@@H](CCCCN)C(=O)N[C@@H](CC(C)C)C(=O)N[C@@H](CCC(N)=O)C(=O)N[C@@H](CC(=O)O)C(=O)N[C@H](C(=O)N[C@@H](Cc1cnc[nH]1)C(=O)N[C@@H](CC(N)=O)C(=O)N[C@@H](Cc1ccccc1)C(N)=O)C(C)C)C(C)C", "Activity": "Non-Toxic"},
      {"smiles": "CC[C@H](C)[C@H](NC(=O)[C@H](CCC(=O)O)NC(=O)[C@H](CO)NC(=O)[C@@H](NC(=O)[C@H](CO)NC(C)=O)C(C)C)C(=O)N[C@@H](CCC(N)=O)C(=O)N[C@@H](CC(C)C)C(=O)N[C@@H](CCSC)C(=O)N[C@@H](Cc1cnc[nH]1)C(=O)N[C@@H](CC(N)=O)C(=O)N[C@@H](CC(C)C)C(=O)NCC(=O)N[C@@H](CCCCN)C(=O)N[C@@H](Cc1cnc[nH]1)C(=O)N[C@@H](CC(C)C)C(=O)N[C@@H](CC(N)=O)C(=O)N[C@@H](CO)C(=O)N[C@@H](CCSC)C(=O)N[C@@H](CCC(=O)O)C(=O)N[C@@H](CCCNC(=N)N[C@@H]1O[C@H](CO)[C@@H](O)[C@H](O)[C@H]1O)C(=O)N[C@H](C(=O)N[C@@H](CCC(=O)O)C(=O)N[C@@H](Cc1c[nH]c2ccccc12)C(=O)N[C@@H](CC(C)C)C(=O)N[C@@H](CCCNC(=N)N[C@@H]1O[C@H](CO)[C@@H](O)[C@H](O)[C@H]1O)C(=O)N[C@@H](CCCCN)C(=O)N[C@@H](CCCCN)C(=O)N[C@@H](CC(C)C)C(=O)N[C@@H](CCC(N)=O)C(=O)N[C@@H](CC(=O)O)C(=O)N[C@H](C(=O)N[C@@H](Cc1cnc[nH]1)C(=O)N[C@@H](CC(N)=O)C(=O)N[C@@H](Cc1ccccc1)C(N)=O)C(C)C)C(C)C", "note": "(Ac-SVSEIQLMHNLGKHLNSME[X1]VEWL[X1]KKLQDVHNF-NH2)", "Activity": "Non-Toxic"}
    ]}
  ]
}
